Assay results taken from patent US6479673B1, “Antiretroviral enantiomeric nucleotide analogs” (Institute of Organic Chemistry and Biochemistry of the …, priority 1992, dated 2002).
In brackets after ≈: the same amount, converted by molar mass.

Tests used:
[1] = test system: Moloney murine sarcoma virus (MSV); experiment: MSV infection in newborn NMRI mice, intraperitoneal administration; type: in vivo; design: protection of the animals against MSV-induced tumor development: unit not given here
Protocol: Two gram newborn NMRI mice were injected intramuscularly in the left hind leg with 50 μl of 250-fold diluted stock preparation of Moloney murine sarcoma virus. […] Another group of mice (20 animals) was administered RPMI-1640 medium as placebo. All compounds were solubilized in RPMI-1640 medium. The mice were observed daily for 20 days and the day of tumor initiation and the day of animal death was recorded for each animal. Statistical analyses were performed by calculating the standard deviation.

[2] = test system: Moloney murine sarcoma virus (MSV); experiment: MSV-induced transformation of C3H/3T3 cells; type: cell-based; settings: concentration inhibiting MSV-induced cell transformation by 50%
Protocol: The cells were seeded in 1-ml-wells of a 48-well microtiter plate and exposed to 80 PFU (plaque forming units) for 60-90 minutes. Then, the virus was removed and culture medium containing appropriate concentrations of the test compounds were added (1 ml per well). At day 6 post infection, MSV-induced transformation of the cell culture was examined microscopically.

[3] = test system: Moloney murine sarcoma virus (MSV); experiment: MSV infection in three-week-old NMRI mice, oral administration; type: in vivo; settings: twice a day, 100 mg/kg (total dose) daily for five days
Protocol: Three-week-old NMRI mice (about 10 grams body weight) were injected intramuscularly in the left hind leg with 50 μl of 20-fold diluted stock preparation of Moloney murine sarcoma virus. Starting 2-4 hours before virus infection,six animals received an orally administered test compound twice a day at 100 mg/kg(total dose) daily for five subsequent days. The control (placebo) group consisted of 14 animals. The experiment was evaluated as described in Example 35.

HIV-2 = HIV-2 induced cytopathicity in MT-4 cells; type: cell-based, human immunodeficiency virus type 2
Protocol: (§1) The activity of the compounds against HIV-1 and HIV-2 induced cytopathicity was examined in human lymphocyte MT-4 cells. […] The infected cell cultures were then incubated at 37° C. for 5 days in a humidified CO2-controlled incubator. Then, the cytopathicity of the virus was examined by determination of MT-4 cell viability by trypan blue dye staining.

MT-4 cells = experiment: MT-4 cell viability (cytotoxicity); type: cell-based, human
Protocol: The activity of the compounds against HIV-1 and HIV-2 induced cytopathicity was examined in human lymphocyte MT-4 cells. […]. The infected cell cultures were then incubated at 37° C. for 5 days in a humidified CO2-controlled incubator. Then, the cytopathicity of the virus was examined by determination of MT-4 cell viability by trypan blue dye staining. The results are summarized in Table 1 in comparison with the data on the prototype compounds.

C3H/3T3 cells = experiment: Microscopic alteration of C3H/3T3 cell culture morphology; type: cell-based, murine; settings: concentration that results in a microscopic alteration of C3H/3T3 cell culture morphology
retrovirus replication = experiment: Anti-retrovirus activity in vitro (conclusions on HIV and MSV tests); type: cell-based; settings: in vitro
HIV-1 = HIV-1 induced cytopathicity in MT-4 cells; type: cell-based, human immunodeficiency virus type 1
Protocol: as §1

[4] = MT-4 cells, concentration inhibiting HIV-induced cytopathicity by 50%

## C[C@H](Cn1cnc2c(N)nc(N)nc21)OCP(=O)(O)O [(R)-PMPDAP, 9-(R)-(2-Phosphonomethoxypropyl)-2,6-Diaminopurine]
[1]; 2 mg/kg single dose i.p., NMRI mice
  Mean day of tumor initiation: 11 days
[1]; 5 mg/kg single dose i.p.
  percentage of MSV-infected mice still alive at day 20 post infection: (90) %
  percentage of MSV-infected mice without tumor at day 20 post infection: (70) %
[1]; 5 mg/kg single dose i.p., NMRI mice
  Mean day of tumor initiation: 12.8 days
[1]; 10 mg/kg single dose i.p.
  percentage of MSV-infected mice still alive at day 20 post infection: (90) %
  percentage of MSV-infected mice without tumor at day 20 post infection: (90) %
[1]; 10 mg/kg single dose i.p., NMRI mice
  Mean day of tumor initiation: 11.5 days
[1]; 20 mg/kg single dose i.p.
  percentage of MSV-infected mice still alive at day 20 post infection: (95) %
  percentage of MSV-infected mice without tumor at day 20 post infection: (95) %
[1]; 20 mg/kg single dose i.p., NMRI mice
  Mean day of tumor initiation: 11 days
[1]; i.p., NMRI mice
  anti-MSV activity in vivo relative to (R)-PMPA: five fold superior over (R)-PMPA
[1]; single dose of 10-20 mg/kg i.p.
  protection of the animals against MSV-induced tumor development: 90-95
[2]
  EC50 MSV: 0.14 µg/mL (≈ 0.463 µM)
[3]
  Mean day of tumor initiation: 7.5 ± 1.0^*) day
  Number of mice developing tumor (%): 67%
HIV-2; HIV-2
  selectivity index (ratio cytotoxic dose/antivirally active dose): > 2000
HIV-2; [4]
  EC50 HIV-2: 0.06 µg/mL (≈ 0.199 µM)
MT-4 cells
  concentration non-toxic to the cells: 100 µg/mL
MT-4 cells; concentration reducing MT-4 cell viability by 50%
  CC50: >100 µg/mL
C3H/3T3 cells
  MIC: >100 µg/mL
Retrovirus replication
  EC50 retrovirus replication: 0.01 to 0.1 µg/mL
HIV-1; HIV-1
  selectivity index (ratio cytotoxic dose/antivirally active dose): > 2000
HIV-1; [4]
  EC50 HIV-1: 0.05 µg/mL (≈ 0.165 µM)
